According to publication PMC5413979 (Nature Communications, 2017):

Target: T1, VcINDY (Vibrio cholerae, UniProt Q9KNE0)
T1 construct: gene VC_A0025

In the case of O=C(O)CCC(=O)O [succinate], the Km is reported as 220 µM.
